Patent US20250082702A1, “ANTICANCER COMPOSITION COMPRISING RECOMBINANT ADENOVIRUS EXPRESSING DEGRADATION FACTOR FOR EXTRACELLULAR MATRIX” (priority 2016, published 2025)

Experiments:
[1] = tested on: AsPC-1; assay: MTT assay, RdB/IL-12/DCN with gemcitabine; assay type: cell-based, human; details: gemcitabine alone at 100 μg/ml
Procedure: (§1) For this purpose, human pancreatic cancer cell lines PANC-1, MIA PaCa-2, and AsPC-1 were infected with RdB/IL-12/DCN of the present invention at a MOI of 0.5 or 2, and treated together with gemcitabine (0.05, 0.2, 1, 2, 5, 20, or 100 μg/ml), and then the degree of apoptosis was observed through MTT assay.

[2] = tested on: MIA PaCa-2; assay: MTT assay, RdB/IL-12/DCN with gemcitabine; assay type: cell-based, human; details: gemcitabine alone at 100 μg/ml
Procedure: as §1

[3] = tested on: PANC-1; assay: MTT assay, RdB/IL-12/DCN with gemcitabine; assay type: cell-based, human; details: gemcitabine alone at 100 μg/ml
Procedure: as §1

[4] = tested on: MIA PaCa-2-Fluc; assay: Orthotopic pancreatic cancer animal model, change in size of tumor (IVIS); assay type: in vivo, mouse; details: IVIS imaging; combination: week 1 and 2; RdB/IL-12/DCN 2×10^10 VP i.p. three times, gemcitabine 100 mg/kg twice weekly for 3 weeks
Procedure: In order to construct an orthotopic pancreatic cancer animal model, a human pancreatic cancer cell line MIA PaCa-2-Fluc was selected and used in the experiment. Tumor cells were injected into the mouse pancreas, and two weeks later, the production of tumors was confirmed through an IVIS imaging machine. Thereafter, RdB/IL-12/DCN was intraperitoneally administered three times at 2×10^10 VP/500 μL every two days, and gemcitabine was administered twice weekly at 100 mg/kg for a total of 3 weeks. Meanwhile, a PBS only administration group was used as a negative control. Before RdB/IL-12/DCN was administered, the size and photon values of tumors were confirmed using the IVIS imaging machine, and at week 1, 2, and 3 after the administration, the changes in size of tumors were quantitatively compared.

[5] = tested on: MIA PaCa-2-Fluc; assay: Histological evaluation of orthotopic pancreatic tumors (H&E, PCNA, TUNEL, E1A); assay type: in vivo, mouse; details: orthotopic MIA PaCa-2-Fluc tumor tissue
Procedure: It was intended to histologically evaluate the anti-tumor effect of the aforementioned experiments. First, the formation of tumors was induced by injecting a human pancreatic cancer cell line MIA PaCa-2-Fluc into the mouse pancreas, and then PBS, gemcitabine, RdB/IL-12/DCN, or gemcitabine+RdB/IL-12/DCN was each administered thereto. Thereafter, hematoxylin-eosin (H & E) staining and PCNA immunohistological staining were performed after collecting the tumor tissues. Further, a TUNEL assay was performed in order to confirm the degree of apoptosis of tumor cells, and immunohistological staining using an antibody against an E1A protein of the adenovirus was performed in order to confirm whether the anti-tumor effect was caused by the replication of the adenovirus present in tumor tissues.

[6] = tested on: BxPC-3; assay: Pancreatic cancer subcutaneous animal model; assay type: in vivo, mice; details: BxPC-3 subcutaneous; RdB/IL-12/RLX intratumoral, gemcitabine 10 mg/kg
Procedure: (§2) It was intended to verify the anti-tumor effect by the co-administration of RdB/IL-12/RLX and gemcitabine in a pancreatic cancer subcutaneous animal model. The formation of tumors was induced by injecting PANC-1, MIA PaCa-2, or BxPC-3 cells subcutaneously into mice, a change in size of tumors was observed while RdB/IL-12/RLX was administered alone or RdB/IL-12/RLX was administered (administered intratumorally) in combination with gemcitabine (10 mg/kg). Meanwhile, a PBS only administration group was used as a negative control.

[7] = tested on: MIA PaCa-2; assay: Pancreatic cancer subcutaneous animal model; assay type: in vivo, mice; details: MIA PaCa-2 subcutaneous; RdB/IL-12/RLX intratumoral, gemcitabine 10 mg/kg
Procedure: as §2

[8] = tested on: PANC-1; assay: Pancreatic cancer subcutaneous animal model; assay type: in vivo, mice; details: PANC-1 subcutaneous; RdB/IL-12/RLX intratumoral, gemcitabine 10 mg/kg
Procedure: as §2

[9] = tested on: MIA PaCa-2; assay: Pancreatic cancer xenograft animal model, extracellular matrix and apoptosis; assay type: in vivo, mice; details: RdB/IL-12/RLX 2×10^6 pfu, gemcitabine 1.5 mg/kg
Procedure: In order to construct a pancreatic cancer xenograft animal model, 5×10^5 of MIA PaCa-2 were injected subcutaneously into mice, and then when the size of tumors reached 50 to 100 mm^3, a change in extracellular matrix and an apoptosis effect were observed while 2×10^6 pfu of RdB/IL-12/RLX were administered alone or administered in combination with 1.5 mg/kg of gemcitabine. During the co-administration, RdB/IL-12/RLX was intratumorally administered three times in total at an interval of 2 days, and gemcitabine was intraperitoneally administered once. Thereafter, immunohistological staining and hematoxylin-eosin (H & E) staining were performed, and in order to confirm the degree of apoptosis, a TUNEL assay and cleaved caspase 3 immunostaining were performed. Meanwhile, a PBS only administration group was used as a negative control.

[10] = tested on: B16-F10; assay: Animal model with induced resistance to anticancer agent (taxol), RdB/IL-12/DCN; assay type: in vivo, C57BL/6 mice; details: day 16 (15 days after first taxol administration); taxol 10 mg/kg i.p., RdB/IL-12/DCN 5×10^5 VP, αPD-1 200 μg
Procedure: Under the conditions where the anti-tumor effect caused by an anticancer agent is insignificant due to the resistance to the anticancer agent, and the like, it was intended to verify an in vivo anti-tumor effect by the co-administration of RdB/IL-12/DCN and the immune checkpoint inhibitor (an anti PD-1 antibody; αPD-1). After a B16-F10 mouse melanoma cell line was injected (5×10^5 cells) subcutaneously into the flank of C57BL/6 mice, taxol (day 1, 2, and 3; 10 mg/kg) was injected intraperitoneally into the formed tumor (day 1, about 50 mm^3), and after RdB/IL-12/DCN was administered alone (day 3, 5, 7, and 9; 5×10^5 VP), αPD-1 was administered alone (day 4, 7, 8, and 10; 200 μg), or RdB/IL-12/DCN and αPD-1 were co-administered (under the same conditions, respectively), the growth of tumors was observed. Meanwhile, a PBS only administration group was used as a negative control.

Row | SMILES | ability to kill the pancreatic cancer cell lines (MTT assay) [1] | ability to kill the pancreatic cancer cell lines (MTT assay) [2] | ability to kill the pancreatic cancer cell lines (MTT assay) [3] | change in size of tumors [4] | necrosis of cells in tumors (H & E staining) [5] | change in size of tumors [6] | change in size of tumors [7] | change in size of tumors [8] | necrosis or apoptosis of cells in tumors (H & E, TUNEL, cleaved caspase 3) [9] | size of tumors [10]
1 | Nc1ccn([C@@H]2O[C@H](CO)[C@@H](O)C2(F)F)c(=O)n1 [gemcitabine] | at most 30% | at most 30% | at most 30% | sharp increases in size of tumors | hardly observed | sharp increase in size of tumors | sharp increase in size of tumors | sharp increase in size of tumors | almost hardly proceeded or was insignificant | –
2 | CC(=O)O[C@H]1C(=O)[C@@]2(C)[C@H]([C@H](OC(=O)c3ccccc3)[C@]3(O)C[C@H](OC(=O)[C@H](O)[C@@H](NC(=O)c4ccccc4)c4ccccc4)C(C)=C1C3(C)C)[C@]1(OC(C)=O)CO[C@@H]1C[C@@H]2O [taxol] | – | – | – | – | – | – | – | – | – | 5394.5±288.2 mm^3
